Series [1] in a line: method code SF-AS, from DOI: 10.1016/s0969-8051(99)00063-3, PMID: 10628565. The following applies: pH 7.0.
The nature of series [2]: method code SF-AS, from DOI: 10.1016/j.bmc.2004.10.037, PMID: 15653345.
Series [3] is described as follows: method code SF, from Yoshimoto, M. (1982). Quantitative structure-activity relationships and structure patterns of drugs. SankyoÌ„ KenkyuÌ„jo nenpoÌ„ (Annual report of Sankyo Research Laboratories), 34, 1-38.
Test in series [4]: not given
The source holds these as a separate data set.

Test in series [5]: not given
This is another data set of the same source.

Series [6] in a line: method code SF-HPLC, from DOI: 10.1023/a:1015902024664, PMID: 2235895. The following applies: pH 7.0.
Series [7] is described as follows: method code SF, from DOI: 10.1007/bf01610114, PMID: 6839039.
The nature of series [8]: method code SF-AS, from DOI: 10.1016/0223-5234(94)90063-9. The following applies: pH 2.0.
Series [9] is described as follows: method code SF-HPLC, from DOI: 10.1016/0378-5173(90)90303-l. The following applies: pH 7.4.
A short description of series [10]: method code SF-HPLC, from DOI: 10.1039/a702469j. The following applies: pH 7.0.
Series [11] in a line: method code SF-RC, from DOI: 10.1002/ps.2780410303.
A short description of series [12]: method code SF-AS, from DOI: 10.1021/jm00395a009, PMID: 3681892. The following applies: pH 7.4.
The nature of series [13]: method code SF-AS, from DOI: 10.1016/0378-5173(86)90115-8.
Test in series [14]: not given
This is another data set of the same source.

Series [15] can be described thus: method code SF, from Wang, L.; Li, H.; Wang, X.; Zhang, Z. (1993). Determination of aqueous solubilities and partition coefficients of substitutive ethylketone congeners by generator column. Huanjing Huaxue, 12(2)151-154.
Series [16] can be described thus: method code SF-AS, from Falk, M.; Luecke, L. (1989). Transport of substances through lipid membranes. 11. Effect of esterification on the dissociation and permeation of orotic acid. Pharmazie, 44(9)647. The following applies: pH 1.2.
Series [17] in a line: method code SF, from DOI: 10.1016/0168-3659(92)90078-6. The following applies: pH 7.0.
A short description of series [18]: method code SF-HPLC, from DOI: 10.1023/a:1018903407592, PMID: 8165182. Conditions: pH 7.4.
Test in series [19]: not given
The source holds these as a separate data set.

Series [20] is described as follows: method code SF, from DOI: 10.1016/0378-5173(90)90261-2. The following applies: pH 3.0.
Test in series [21]: not given
This is another data set of the same source.

Test in series [22]: not given
This is another data set of the same source.

A short description of series [23]: method code SF, from DOI: 10.1248/cpb.39.1346, PMID: 1914012.

Here are results for 70 compounds from the SangsterLogP compilation.

A word on the logP: it is a log measure of how a compound divides between an organic and an aqueous phase. A lower logP goes with lower lipophilicity.

As for `COCCn1cnc2c(=O)[nH]c(Nc3ccccc3)nc21`, the logD in series [1] was 1.2.
As for `CC(C)NC(C)Cc1ccc(I)cc1` (stereo not given), the logP came out at 1.6.
In [2], `CCOC(=O)C(CS)NCc1ccc(O)c2ncccc12` (stereo not given) had a logP of 0.21.
In series [3], `COC1(NC(=O)CSc2nc3c[nH]cnc-3n2)C(=O)N2C(C(=O)O)=C(COC(N)=O)CSC21` (stereo not given) displayed a logP of -1.72.
On to `COc1cccc(Nc2ccccc2C(=O)O)c1`, for which the lipophilicity (logP) in series [4] was 4.31.
In [5], `Clc1ccc(C(Cn2ccnc2)OCc2ccsc2Cl)c(Cl)c1` (stereo not given) showed a logP of 4.7.
Regarding `CCCCCCCCCC(=O)OC[C@H]1O[C@@H](n2cc(C)c(=O)[nH]c2=O)C[C@@H]1N=[N+]=[N-]`, the logD in series [6] stood at 4.45.
For `CC(C)OC(=O)c1ccccc1C(=O)OC(C)C`, the logP in [7] was determined as 2.83.
Turning to `Cn1c(CC(=O)O)cnc1C(=O)c1ccc([N+](=O)[O-])cc1`, the logD in [8] is 0.86.
Turning to `CCN(CC)C(=O)COC(=O)c1cc(S(N)(=O)=O)c(Cl)cc1NCc1ccco1`, in series [9], the logD stood at 2.45.
The compound `O=C(O)c1ccccc1Nc1cccc(O)c1` displayed a logP in series [4] of 3.43.
`CCOC(=O)c1cc(S(N)(=O)=O)c(Cl)cc1NCc1ccco1`: the logD in series [9] is 2.67.
In turn, `CCC(C)SCC(=O)NC1(OC)C(=O)N2C(C(=O)O)=C(COC(N)=O)CSC21` (stereo not given) returned a logP in series [3] of -1.38.
As for `C#CCN(C)Cc1ccc(O)c2ncccc12`, the logP in [2] amounted to 1.92.
In the case of `CCOP(=O)(OCC)C(C)(C)[N+]([O-])=Cc1ccccn1`, the logD in series [10] was found to be 0.68.
`COc1ccc(C(=O)c2ncc(CC(=O)O)n2C)cc1`: the logD in series [8] was 0.11.
As for `CCCCc1cnc(C2=NC(C)(C(C)C)C(=O)N2)c(C(=O)O)c1` (stereo not given), the logD in series [11] (pH 2.8) came out at 1.99.
In [12], `COC1OC(n2ccc(=O)[nH]c2=O)C(OC)C1OC` (stereo not given) displayed a logD of -0.3.
Consider `CCCCC(=O)N(C)c1ccc(S(=O)(=O)N(C)C)cc1`, for which the logP in [13] worked out at 1.63.
`CCCCCC(=O)OC[C@H]1O[C@@H](n2cc(C)c(=O)[nH]c2=O)C[C@@H]1N=[N+]=[N-]` returned a logD in [6] of 2.45.
Take `CC(=O)c1cccc(Nc2ccccc2C(=O)O)c1`: the logP in series [4] came to 4.07.
Regarding `Fc1ccc(-c2ccc(-c3ccc(F)cc3)o2)cc1`, the logP in [14] is 5.11.
As to `CC(=O)OCC1OC(n2ccc(=O)n(Cc3ccccc3)c2=O)C(OC(C)=O)C1OC(C)=O` (stereo not given), in series [12], the logD turned out to be 1.51.
For `O=c1[nH]c(Nc2ccccc2)nc2c1ncn2CCO`, the logD in series [1] was 0.83.
Take `Cc1ccc(SCC(=O)c2ccccc2)cc1`: in series [15], the logP came to 2.46.
`CC(C)C1(C)N=C(c2ncc(Br)cc2C(=O)O)NC1=O` (stereo not given): the logD in [11] (pH 1.8) turned out to be 1.19.
Consider `CCCCCCCCCOC(=O)c1cc(=O)[nH]c(=O)[nH]1`, for which the logD in [16] was 2.41.
In series [17], `CCCC(C)C(=O)OCC1CCC(n2cnc3c(O)ncnc32)O1` (stereo not given) came in with a logD of 1.
Compound `CCCCCC(=O)OCCOCn1cnc2c(=O)[nH]c(N)nc21` showed a logD in [18] of 0.93.
As to `Cn1c(CC(=O)O)cnc1C(=O)c1ccc(Cl)cc1`, the logD in [8] amounted to 1.17.
In series [19], `Cc1cc(Cl)c(Cc2cc(Cl)ccc2Cl)cc1Cl` had a logP of 6.51.
`CCCCCOC(=O)c1ccccc1C(=O)OCCCCC`: the logP in series [7] is 4.85.
In [20], `O=C(O)CCCCCc1ccccc1` showed a logD of 3.27.
In series [14], `COc1ccc(C(c2ccc(OC)cc2)C(Cl)Cl)cc1` had a logP of 3.78.
For `Cc1cc(I)cc(CN(C)CCCN(C)C)c1O`, the logP turned out to be 2.2.
For `CC(C)C(=O)OCC1CCC(n2cnc3c(O)ncnc32)O1` (stereo not given), the logD in [17] amounted to 0.02.
In series [21], `CSCCC(NC(C)=O)C(=O)Nc1nnc(-c2cccc(Cl)c2Cl)c(N)n1` (stereo not given) displayed a logP of 1.92.
Compound `O=C(O)CCCCCCCc1ccccc1` showed a logD in series [20] of 4.09.
Turning to `CCCCCCC(O)(Cn1ccnc1)c1ccc(Cl)cc1Cl` (stereo not given), the logP in series [5] worked out at 5.2.
In [10], `CCOP(=O)(OCC)C(C)(C)[N+]([O-])=Cc1ccc(Cl)cc1` registered a logD of 2.44.
`CN(C(=O)CCO)c1ccc(S(=O)(=O)N(C)C)cc1` displayed a logP in series [13] of -0.26.
Consider `CC(=O)Nc1ccc(OCC(O)CNCC(O)COc2ccccc2)cc1` (stereo not given), for which the logP in [22] is 1.39.
In [7], `CC(C)COC(=O)c1ccccc1C(=O)OCC(C)C` had a logP of 4.11.
In turn, `O=C(CCCN1CCC(O)(c2ccc(I)cc2)CC1)c1ccc(F)cc1` showed a logP of 2.6.
As to `CN(C(=O)CCC#N)c1ccc(S(=O)(=O)N(C)C)cc1`, the logP in series [13] is -0.17.
On to `CCCC(=O)OC[C@H]1O[C@@H](n2cc(C)c(=O)[nH]c2=O)C[C@@H]1N=[N+]=[N-]`, for which the logD in series [6] turned out to be 1.5.
Compound `CCCC(=O)OCCOCn1cnc2c(=O)[nH]c(N)nc21` gave a logD in series [18] of -0.08.
Turning to `COCc1cnc(C2=NC(C)(C(C)C)C(=O)N2)c(C(=O)O)c1` (stereo not given), the logD in [11] (pH 2.5) was 0.47.
For `CCCCC(=O)OCCOCn1cnc2c(=O)[nH]c(N)nc21`, the logD in series [18] amounted to 0.37.
Regarding `O=C(CSc1ccccc1)c1ccccc1`, the logP in [15] is 1.88.
As to `Cc1cc(Cc2ccc(Cl)c(Cl)c2)c(Cl)cc1Cl`, in series [19], the logP amounted to 6.51.
`COC1(NC(=O)CSc2nncs2)C(=O)N2C(C(=O)O)=C(COC(N)=O)CSC21` (stereo not given) gave a logP in [3] of -1.95.
In series [22], `OC(CNCC(O)COc1ccccc1)COc1ccccc1` (stereo not given) gave a logP of 2.52.
In turn, `CC(=O)NC(CCC(=O)O)C(=O)Nc1nnc(-c2cccc(Cl)c2Cl)c(N)n1` (stereo not given) yielded a logP in series [21] of 1.6.
Compound `O=c1[nH]c(Nc2ccccc2)nc2c1ncn2C1CC(O)C(CO)O1` (stereo not given) gave a logD in series [1] of 0.4.
In series [21], `CC(=O)NCC(=O)Nc1nnc(-c2cccc(Cl)c2Cl)c(N)n1` had a logP of 1.1.
Consider `CCC(=O)OCOC(=O)c1cc(S(N)(=O)=O)c(Cl)cc1NCc1ccco1`, for which the logD in [9] was 2.9.
`Cc1cc(Cl)c(Cl)cc1Cc1ccc(Cl)cc1Cl`: the logP in [19] turned out to be 6.43.
For `CCOP(=O)(OCC)C(C)(C)[N+]([O-])=Cc1ccc([N+](=O)[O-])cc1`, the logD in series [10] turned out to be 1.43.
As for `CCCCCCCOC(=O)c1cc(=O)[nH]c(=O)[nH]1`, the logD in [16] turned out to be 2.15.
In series [5], `OC(Cn1ccnc1)(Cn1cncn1)c1ccc(Cl)cc1Cl` (stereo not given) registered a logP of 1.6.
In the case of `O=c1ccn(C2OC(CO)C(O)C2O)c(=O)n1Cc1ccccc1` (stereo not given), the logD in series [12] was 0.33.
For the compound `O=C(CSc1ccccc1)c1ccc(Cl)cc1`, the logP in [15] came out at 2.69.
Turning to `CCCCCCCCOC(=O)c1cc(=O)[nH]c(=O)[nH]1`, in series [16], the logD came out at 2.6.
Turning to `O=C(O)CCCCCCc1ccccc1`, the logD in [20] is 3.63.
As to `O=C1CCCCCCCCCCC1`, the logP in series [14] was determined as 4.1.
As to `CC1(C(=O)O)CCC2(C)CCC3(C)C(=CC(=O)C4C5(C)CCC(O)C(C)(C)C5CCC43C)C2C1` (stereo not given), in [23], the logP was determined as 4.77.
Compound `OCCN1CCN(Cc2ccc(O)c3ncccc23)CC1` returned a logP in series [2] of 0.54.
With `CC(C)(C)NC[C@H](O)COc1nsnc1N1CCOCC1`, in [22], the logP was 1.98.
In turn, `CC(C)(C)C(=O)OCC1CCC(n2cnc3c(O)ncnc32)O1` (stereo not given) registered a logD in series [17] of 0.6.
